Results reported in patent US10258606B2, “Endothelin single nucleotide polymorphisms and methods of predicting β-adrenergic receptor targeting agent efficacy” (The Regents of the University of Colorado, A Body Corporate, priority 2007, dated 2019).

How the values were obtained:
[1] = system: subjects with idiopathic dilated cardiomyopathy; experiment: BEST (Beta-Blocker Evaluation of Survival Trial) DNA substudy: time to event by endothelin gene system genotype, Cox proportional hazards model; format: in vivo, human; conditions: for Event/number, first heart failure hospitalization or death: FIG. 1; for E, number of events / HR associated with each copy of allele A, allele dosage Cox model / HR associated with each copy of allele Asn, allele dosage Cox model: bucindolol arm; for HR associated with each copy of allele A, allele dosage Cox model: G/A (IVS-4); for HR associated with each copy of allele Asn, allele dosage Cox model: Lys198Asn
Text: 309 subjects with idiopathic dilated cardiomyopathy were studied from the Beta-Blocker Evaluation of Survival Trial (BEST) (2001). BEST was a multicenter, randomized, prospective trial of patients with NYHA class III or IV heart failure and an ejection fraction <35% comparing mortality in adults treated with placebo or the non-selective β-blocker bucindolol. The BEST DNA bank, initiated in the study's second year, collected samples from 38% of the original participants. The inventors requested samples from idiopathic dilated cases, rather than the entire cohort, to ensure a more homogenous heart failure population. In particular, the inventors sought to avoid studying […] ischemic forms of heart failure where acquired macrovascular changes in arterial stiffness or tone could potentially mask or override inherent microvascular phenotypes mediated by variation in endothelin genes. Written informed consent was obtained from each participant and all DNA was coded to maintain confidentiality. The genotyping project was approved by the BEST DNA Bank Oversight Committee and by the Colorado Multiple Institutional Review Board
Time to each of two endpoints was examined: all cause death and a combined endpoint comprised of first heart failure hospitalization or all cause death, using the Cox proportional hazards model. Genotype was treated a priori as a continuous variable, consistent with an allele dosage effect. Analyses were conducted using R and SAS. Primary analyses consisted of separate tests of a main genotype effect on time to event for each SNP within each treatment arm: placebo (N=159) and bucindolol (N=150). Secondary analyses, in the combined sample (N=309), consisted of tests of a genotype-treatment pharmacogenetic interaction and of a main genotype effect independent of treatment arm. Secondary analyses, comprised of interaction tests and estimation of within-genotype bucindolol:placebo hazard ratios, were also performed. Ethnicity was not included as a factor in initial Cox models, because of the relatively small sample. However, post-hoc analyses (within ethnic group, and including ethnicity-genotype interactions) were used to explore whether initial results were due to unaccounted for ethnic stratification. Linkage disequilibrium was assessed by taking the R^2 value (squared correlation) of the genotypes (coded as 0, 1 or 2) between two SNPs.
To account for the large number of simultaneous tests, adjusted p-values obtained from a multiple-testing permutation procedure are reported (Westfall and Young, 1993). Based on the actual data set, 5000 random data sets were generated by randomly permuting the time to event data relative to the genotype data, separately for patients on placebo and for patients on bucindolol. […] Adjusted p-values for interaction tests are based on 18 tests (2 outcomes×9 SNPs).
Cox model analysis was also used to examine a variety of more complicated models, and to describe the quantify the effects of bucindolol in terms of bucindolol:placebo hazard ratios, within genotype. Kaplan-Meier plots and log-rank tests were also examined. All p-values were based on two-sided tests. The statistical analysis was performed at the Veterans Affairs Cooperative Studies Program DNA Bank Coordinating Center.

[2] = system: 1040 BEST DNA Bank subjects; conditions: bucindolol treated subjects carrying the Arg-389 allele of the beta-1-adrenergic receptor (ADRB); cited from earlier work
[3] = combined endpoint, Non-Hispanic Blacks
[4] = combined endpoint, Non-Hispanic Whites

In the case of `CC(C)(Cc1c[nH]c2ccccc12)NCC(O)COc1ccccc1C#N` (centres unmarked) [Bucindolol, bucindolol], the “Event/number, first heart failure hospitalization or death” value ([1]; IVS-4 G/A common homozygotes) is reported as 21/84, the “Event/number, first heart failure hospitalization or death” value ([1]; IVS-4 G/A heterozygotes) is reported as 21/58 and the “Event/number, first heart failure hospitalization or death” value ([1]; IVS-4 G/A rare homozygotes) is reported as 7/8. The “Event/number, first heart failure hospitalization or death” value ([1]; Lys198Asn common homozygotes) was 22/87, the “Event/number, first heart failure hospitalization or death” value ([1]; Lys198Asn heterozygotes) was 20/55 and the “Event/number, first heart failure hospitalization or death” value ([1]; Lys198Asn rare homozygotes) was 7/8. For the same compound, the “E, number of events” value ([1]; combined endpoint, G/A (IVS-4) analysis, All (N 150)) was 49, the “E, number of events” value ([1]; combined endpoint, G/A (IVS-4) analysis, Non-Hispanic Blacks (N 38)) was 16 and the “E, number of events” value ([1]; combined endpoint, G/A (IVS-4) analysis, Non-Hispanic Whites (N 100)) was 27. The “HR associated with each copy of allele A, allele dosage Cox model” value ([1]; combined endpoint, All) was 2.2, the “HR associated with each copy of allele A, allele dosage Cox model” value [1, 3] was 1.58 and the “HR associated with each copy of allele A, allele dosage Cox model” value [1, 4] was 1.9. For the same compound, the “E, number of events” value ([1]; combined endpoint, Lys198Asn analysis, All (N 150)) was 49, the “E, number of events” value ([1]; combined endpoint, Lys198Asn analysis, Non-Hispanic Blacks (N 38)) was 16 and the “E, number of events” value ([1]; combined endpoint, Lys198Asn analysis, Non-Hispanic Whites (N 100)) was 27. The “HR associated with each copy of allele Asn, allele dosage Cox model” value ([1]; combined endpoint, All) was 2.0, the “HR associated with each copy of allele Asn, allele dosage Cox model” value [1, 3] was 1.5 and the “HR associated with each copy of allele Asn, allele dosage Cox model” value [1, 4] was 1.9. The “Hazard ratio for bucindolol versus placebo” value (“Hazard ratio” below) ([1]; combined endpoint (first heart failure hospitalization or all cause mortality), EDN1 G/A (IVS-4) genotype GG) was 0.5, the “Hazard ratio” value ([1]; combined endpoint, EDN1 G/A (IVS-4) genotype AA) was 3.2 and the “Hazard ratio” value ([1]; combined endpoint, EDN1 G/A (IVS-4) genotype GA) was 1.1. The “Hazard ratio” value ([1]; combined endpoint, EDN1 Lys198Asn genotype Asn/Asn) was 2.5, the “Hazard ratio” value ([1]; combined endpoint, EDN1 Lys198Asn genotype Lys/Asn) was 1.1 and the “Hazard ratio” value ([1]; combined endpoint, EDN1 Lys198Asn genotype Lys/Lys) was 0.5. For the same compound, the “apparent effect of bucindolol on combined endpoint” value (shortened to “apparent effect of bucindolol”) ([1]; common homozygotes (statistically significant)) was “beneficial effect”, the “apparent effect of bucindolol” value ([1]; heterozygotes) was “neutral effect” and the “apparent effect of bucindolol” value ([1]; rare homozygotes) was “harmful effect”. For the same compound, the “combined endpoint hazard rate on bucindolol relative to placebo” value ([1]; the 5.5% of subjects homozygous for the rare complementary haplotype) was “almost three times greater” and the all-cause mortality [2] was “reduced all-cause mortality”.
